In ChEMBL document CHEMBL4507279, “Data for DCP probe BI-9627” (2021):

Experiments:
[1] = tested on: Tyrosine-protein kinase ABL1 (Homo sapiens), P00519 [F317L]; conditions: Compound concentration 1000.0 nM
[2] = tested on: Tyrosine-protein kinase ABL1 (Homo sapiens), P00519 [M351T]; conditions: Compound concentration 1000.0 nM
[3] = molecular target: Activin receptor type-1-like (Homo sapiens) (UniProt P37023); conditions: Compound concentration 1000.0 nM
[4] = molecular target: 5'-AMP-activated protein kinase catalytic subunit alpha-1 (Homo sapiens) (UniProt Q13131); conditions: Compound concentration 1000.0 nM
[5] = molecular target: Tyrosine-protein kinase receptor UFO (Homo sapiens) (UniProt P30530); conditions: Compound concentration 1000.0 nM
[6] = molecular target: Serine/threonine-protein kinase B-raf (Homo sapiens) (UniProt P15056); conditions: Compound concentration 1000.0 nM
[7] = molecular target: Protein-tyrosine kinase 6 (Homo sapiens) (UniProt Q13882); conditions: Compound concentration 1000.0 nM
[8] = molecular target: Tyrosine-protein kinase BTK (Homo sapiens) (UniProt Q06187); conditions: Compound concentration 1000.0 nM
[9] = molecular target: Death-associated protein kinase 2 (Homo sapiens) (UniProt Q9UIK4); conditions: Compound concentration 1000.0 nM
[10] = molecular target: Serine/threonine-protein kinase DCLK3 (Homo sapiens) (UniProt Q9C098); conditions: Compound concentration 1000.0 nM
[11] = tested on: Epidermal growth factor receptor (Homo sapiens), P00533 [G719C]; conditions: Compound concentration 1000.0 nM
[12] = tested on: Epidermal growth factor receptor (Homo sapiens), P00533 [UNDEFINED MUTATION]; conditions: Compound concentration 1000.0 nM
[13] = tested on: Epidermal growth factor receptor (Homo sapiens), P00533 [L858R,T790M]; conditions: Compound concentration 1000.0 nM
[14] = molecular target: Ephrin type-A receptor 7 (Homo sapiens) (UniProt Q15375); conditions: Compound concentration 1000.0 nM
[15] = molecular target: Ephrin type-B receptor 1 (Homo sapiens) (UniProt P54762); conditions: Compound concentration 1000.0 nM
[16] = molecular target: Vascular endothelial growth factor receptor 1 (Homo sapiens) (UniProt P17948); conditions: Compound concentration 1000.0 nM
[17] = tested on: Receptor-type tyrosine-protein kinase FLT3 (Homo sapiens), P36888 [UNDEFINED MUTATION]; conditions: Compound concentration 1000.0 nM
[18] = tested on: Receptor-type tyrosine-protein kinase FLT3 (Homo sapiens), P36888 [K663Q]; conditions: Compound concentration 1000.0 nM
[19] = molecular target: Tyrosine-protein kinase HCK (Homo sapiens) (UniProt P08631); conditions: Compound concentration 1000.0 nM
[20] = molecular target: Inhibitor of nuclear factor kappa-B kinase subunit alpha (Homo sapiens) (UniProt O15111); conditions: Compound concentration 1000.0 nM
[21] = molecular target: Interleukin-1 receptor-associated kinase 1 (Homo sapiens) (UniProt P51617); conditions: Compound concentration 1000.0 nM
[22] = tested on: Mast/stem cell growth factor receptor Kit (Homo sapiens), P10721 [V559D]; conditions: Compound concentration 1000.0 nM
[23] = tested on: Mast/stem cell growth factor receptor Kit (Homo sapiens), P10721 [V559D,T670I]; conditions: Compound concentration 1000.0 nM
[24] = molecular target: Mast/stem cell growth factor receptor Kit (Homo sapiens) (UniProt P10721); conditions: Compound concentration 1000.0 nM
[25] = molecular target: LIM domain kinase 2 (Homo sapiens) (UniProt P53671); conditions: Compound concentration 1000.0 nM
[26] = molecular target: Mitogen-activated protein kinase kinase kinase 3 (Homo sapiens) (UniProt Q99759); conditions: Compound concentration 1000.0 nM
[27] = molecular target: Mitogen-activated protein kinase kinase kinase kinase 4 (Homo sapiens) (UniProt O95819); conditions: Compound concentration 1000.0 nM
[28] = molecular target: MAP kinase-activated protein kinase 2 (Homo sapiens) (UniProt P49137); conditions: Compound concentration 1000.0 nM
[29] = molecular target: Mitogen-activated protein kinase kinase kinase 9 (Homo sapiens) (UniProt P80192); conditions: Compound concentration 1000.0 nM
[30] = molecular target: Serine/threonine-protein kinase 38 (Homo sapiens) (UniProt Q15208); conditions: Compound concentration 1000.0 nM
[31] = molecular target: Phosphatidylinositol 3-kinase C2 domain-containing subunit gamma (Homo sapiens) (UniProt O75747); conditions: Compound concentration 1000.0 nM
[32] = molecular target: cGMP-dependent protein kinase 2 (Homo sapiens) (UniProt Q13237); conditions: Compound concentration 1000.0 nM
[33] = molecular target: Dual serine/threonine and tyrosine protein kinase (Homo sapiens) (UniProt Q6XUX3); conditions: Compound concentration 1000.0 nM
[34] = molecular target: Ribosomal protein S6 kinase alpha-1 (Homo sapiens) (UniProt Q15418); conditions: Compound concentration 1000.0 nM
[35] = molecular target: Ribosomal protein S6 kinase alpha-6 (Homo sapiens) (UniProt Q9UK32); conditions: Compound concentration 1000.0 nM
[36] = molecular target: Serine/threonine-protein kinase Sgk3 (Homo sapiens) (UniProt Q96BR1); conditions: Compound concentration 1000.0 nM
[37] = molecular target: Serine/threonine-protein kinase SIK1 (Homo sapiens) (UniProt P57059); conditions: Compound concentration 1000.0 nM
[38] = molecular target: Serine/threonine-protein kinase SIK2 (Homo sapiens) (UniProt Q9H0K1); conditions: Compound concentration 1000.0 nM
[39] = molecular target: Serine/threonine-protein kinase 33 (Homo sapiens) (UniProt Q9BYT3); conditions: Compound concentration 1000.0 nM
[40] = molecular target: STE20/SPS1-related proline-alanine-rich protein kinase (Homo sapiens) (UniProt Q9UEW8); conditions: Compound concentration 1000.0 nM
[41] = molecular target: TRAF2 and NCK-interacting protein kinase (Homo sapiens) (UniProt Q9UKE5); conditions: Compound concentration 1000.0 nM
[42] = molecular target: Serine/threonine-protein kinase WNK3 (Homo sapiens) (UniProt Q9BYP7); conditions: Compound concentration 1000.0 nM
[43] = molecular target: GABA-A receptor; anion channel (Rattus norvegicus) (UniProt O09028+P15431+P18506+P18508+P19969+P20236+P23574+P23576+P28471+P28473+P30191+P62813+P63079+P63138+Q91ZM7+Q9ES14); conditions: Compound concentration 10.0 uM

Mast/stem cell growth factor receptor Kit (Homo sapiens), sequence (P10721 whole entry, the tested form may be a part): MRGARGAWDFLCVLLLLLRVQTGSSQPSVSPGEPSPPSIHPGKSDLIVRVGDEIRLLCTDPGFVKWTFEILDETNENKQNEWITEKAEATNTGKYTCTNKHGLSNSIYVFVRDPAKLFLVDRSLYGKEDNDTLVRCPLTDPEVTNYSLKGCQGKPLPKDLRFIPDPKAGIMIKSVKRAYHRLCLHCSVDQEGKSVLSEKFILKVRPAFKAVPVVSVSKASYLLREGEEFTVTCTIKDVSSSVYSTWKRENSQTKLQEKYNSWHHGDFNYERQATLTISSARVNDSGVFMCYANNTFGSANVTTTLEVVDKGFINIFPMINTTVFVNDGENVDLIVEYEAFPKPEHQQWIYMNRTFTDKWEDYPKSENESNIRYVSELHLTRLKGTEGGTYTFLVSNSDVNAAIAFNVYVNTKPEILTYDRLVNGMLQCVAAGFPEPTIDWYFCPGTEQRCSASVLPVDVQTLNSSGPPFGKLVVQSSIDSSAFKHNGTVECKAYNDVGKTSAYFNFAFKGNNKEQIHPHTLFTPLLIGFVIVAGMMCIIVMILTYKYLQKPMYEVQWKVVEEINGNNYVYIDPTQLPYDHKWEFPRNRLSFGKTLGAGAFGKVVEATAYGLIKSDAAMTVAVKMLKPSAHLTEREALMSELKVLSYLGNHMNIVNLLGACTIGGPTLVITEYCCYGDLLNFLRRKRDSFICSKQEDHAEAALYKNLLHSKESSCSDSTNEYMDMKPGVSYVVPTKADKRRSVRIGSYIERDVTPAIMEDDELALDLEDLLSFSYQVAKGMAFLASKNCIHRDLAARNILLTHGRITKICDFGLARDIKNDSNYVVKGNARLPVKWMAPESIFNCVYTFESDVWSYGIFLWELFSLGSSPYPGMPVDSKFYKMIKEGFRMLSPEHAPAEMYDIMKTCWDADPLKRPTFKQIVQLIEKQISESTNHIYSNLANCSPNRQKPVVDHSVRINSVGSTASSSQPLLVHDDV
Serine/threonine-protein kinase WNK3 (Homo sapiens), sequence (Q9BYP7 whole entry): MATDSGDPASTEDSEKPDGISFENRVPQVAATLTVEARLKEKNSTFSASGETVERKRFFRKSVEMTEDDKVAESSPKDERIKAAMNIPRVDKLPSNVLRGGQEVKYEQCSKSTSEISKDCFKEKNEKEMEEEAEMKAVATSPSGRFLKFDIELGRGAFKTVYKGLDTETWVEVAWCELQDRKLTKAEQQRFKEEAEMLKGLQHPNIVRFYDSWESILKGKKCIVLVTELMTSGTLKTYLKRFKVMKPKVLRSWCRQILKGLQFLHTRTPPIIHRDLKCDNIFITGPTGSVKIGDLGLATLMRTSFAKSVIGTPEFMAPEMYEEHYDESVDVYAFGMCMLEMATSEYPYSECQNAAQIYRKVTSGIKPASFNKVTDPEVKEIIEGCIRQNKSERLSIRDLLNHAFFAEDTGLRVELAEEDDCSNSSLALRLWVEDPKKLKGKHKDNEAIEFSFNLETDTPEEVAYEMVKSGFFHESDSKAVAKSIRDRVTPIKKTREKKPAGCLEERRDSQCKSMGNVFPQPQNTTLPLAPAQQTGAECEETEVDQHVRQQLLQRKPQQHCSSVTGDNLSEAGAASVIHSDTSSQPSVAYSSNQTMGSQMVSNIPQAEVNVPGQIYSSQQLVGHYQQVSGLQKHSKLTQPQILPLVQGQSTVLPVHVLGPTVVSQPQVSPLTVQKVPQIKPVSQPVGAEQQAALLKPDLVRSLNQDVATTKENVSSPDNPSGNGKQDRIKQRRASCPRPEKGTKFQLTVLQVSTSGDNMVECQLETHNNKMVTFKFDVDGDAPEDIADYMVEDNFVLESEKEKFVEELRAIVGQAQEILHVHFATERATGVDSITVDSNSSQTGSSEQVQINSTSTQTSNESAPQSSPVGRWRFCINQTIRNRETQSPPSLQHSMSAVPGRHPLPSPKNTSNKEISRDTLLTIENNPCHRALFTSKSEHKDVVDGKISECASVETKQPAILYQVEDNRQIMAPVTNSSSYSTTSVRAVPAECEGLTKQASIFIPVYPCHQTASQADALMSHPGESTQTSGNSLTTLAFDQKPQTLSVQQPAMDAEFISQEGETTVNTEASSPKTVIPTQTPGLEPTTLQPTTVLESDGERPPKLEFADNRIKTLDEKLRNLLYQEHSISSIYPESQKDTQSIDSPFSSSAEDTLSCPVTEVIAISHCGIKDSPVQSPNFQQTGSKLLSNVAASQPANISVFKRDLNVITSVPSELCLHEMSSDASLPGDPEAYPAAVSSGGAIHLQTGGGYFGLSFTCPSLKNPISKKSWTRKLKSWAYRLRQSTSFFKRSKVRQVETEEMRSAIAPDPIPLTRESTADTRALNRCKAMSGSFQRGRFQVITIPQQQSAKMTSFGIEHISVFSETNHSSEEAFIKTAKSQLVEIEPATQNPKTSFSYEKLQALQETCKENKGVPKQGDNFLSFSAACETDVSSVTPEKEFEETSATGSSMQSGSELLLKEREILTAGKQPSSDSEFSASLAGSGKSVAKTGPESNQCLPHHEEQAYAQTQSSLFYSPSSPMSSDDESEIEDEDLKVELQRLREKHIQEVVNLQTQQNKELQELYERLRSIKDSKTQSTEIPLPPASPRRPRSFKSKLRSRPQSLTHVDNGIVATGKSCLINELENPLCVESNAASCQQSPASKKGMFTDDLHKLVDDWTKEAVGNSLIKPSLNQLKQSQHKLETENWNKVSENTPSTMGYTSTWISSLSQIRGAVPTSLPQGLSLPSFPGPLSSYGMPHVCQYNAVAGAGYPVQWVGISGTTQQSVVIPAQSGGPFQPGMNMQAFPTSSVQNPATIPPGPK
Mitogen-activated protein kinase kinase kinase 9 (Homo sapiens), sequence (P80192 whole entry, looked up): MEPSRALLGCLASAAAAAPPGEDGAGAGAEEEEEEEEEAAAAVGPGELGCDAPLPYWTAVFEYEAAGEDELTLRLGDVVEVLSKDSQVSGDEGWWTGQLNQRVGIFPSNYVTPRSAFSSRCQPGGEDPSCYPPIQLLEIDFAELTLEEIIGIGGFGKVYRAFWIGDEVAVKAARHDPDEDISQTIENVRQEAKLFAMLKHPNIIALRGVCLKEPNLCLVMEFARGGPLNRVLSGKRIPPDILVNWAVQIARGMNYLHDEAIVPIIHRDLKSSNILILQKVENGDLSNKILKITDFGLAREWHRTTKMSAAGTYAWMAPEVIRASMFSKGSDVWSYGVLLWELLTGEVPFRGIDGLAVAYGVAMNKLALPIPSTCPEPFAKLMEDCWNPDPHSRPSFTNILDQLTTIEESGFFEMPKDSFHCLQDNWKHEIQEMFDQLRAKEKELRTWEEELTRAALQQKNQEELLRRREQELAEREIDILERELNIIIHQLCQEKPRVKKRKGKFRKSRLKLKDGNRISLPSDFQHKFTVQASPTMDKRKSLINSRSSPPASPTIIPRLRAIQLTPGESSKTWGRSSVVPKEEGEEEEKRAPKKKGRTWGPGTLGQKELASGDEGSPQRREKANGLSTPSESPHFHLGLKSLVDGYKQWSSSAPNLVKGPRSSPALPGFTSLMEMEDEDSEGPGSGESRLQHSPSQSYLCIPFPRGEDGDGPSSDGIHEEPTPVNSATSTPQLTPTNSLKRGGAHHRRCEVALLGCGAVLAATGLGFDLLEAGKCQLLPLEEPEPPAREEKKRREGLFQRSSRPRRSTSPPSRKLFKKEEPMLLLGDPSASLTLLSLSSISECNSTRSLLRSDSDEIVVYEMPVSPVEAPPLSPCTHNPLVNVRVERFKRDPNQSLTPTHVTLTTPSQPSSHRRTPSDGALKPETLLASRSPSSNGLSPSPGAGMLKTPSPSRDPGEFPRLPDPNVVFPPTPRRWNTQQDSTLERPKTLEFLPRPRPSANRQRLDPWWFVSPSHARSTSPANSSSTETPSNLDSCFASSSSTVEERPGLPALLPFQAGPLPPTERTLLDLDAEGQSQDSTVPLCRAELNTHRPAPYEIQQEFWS
Mast/stem cell growth factor receptor Kit (Homo sapiens), P10721 [V559D], sequence (P10721 whole entry V559D): as the sequence (P10721 whole entry, the tested form may be a part) above, with V559D counted along it
LIM domain kinase 2 (Homo sapiens), sequence (P53671 whole entry, looked up, the tested form may be a part): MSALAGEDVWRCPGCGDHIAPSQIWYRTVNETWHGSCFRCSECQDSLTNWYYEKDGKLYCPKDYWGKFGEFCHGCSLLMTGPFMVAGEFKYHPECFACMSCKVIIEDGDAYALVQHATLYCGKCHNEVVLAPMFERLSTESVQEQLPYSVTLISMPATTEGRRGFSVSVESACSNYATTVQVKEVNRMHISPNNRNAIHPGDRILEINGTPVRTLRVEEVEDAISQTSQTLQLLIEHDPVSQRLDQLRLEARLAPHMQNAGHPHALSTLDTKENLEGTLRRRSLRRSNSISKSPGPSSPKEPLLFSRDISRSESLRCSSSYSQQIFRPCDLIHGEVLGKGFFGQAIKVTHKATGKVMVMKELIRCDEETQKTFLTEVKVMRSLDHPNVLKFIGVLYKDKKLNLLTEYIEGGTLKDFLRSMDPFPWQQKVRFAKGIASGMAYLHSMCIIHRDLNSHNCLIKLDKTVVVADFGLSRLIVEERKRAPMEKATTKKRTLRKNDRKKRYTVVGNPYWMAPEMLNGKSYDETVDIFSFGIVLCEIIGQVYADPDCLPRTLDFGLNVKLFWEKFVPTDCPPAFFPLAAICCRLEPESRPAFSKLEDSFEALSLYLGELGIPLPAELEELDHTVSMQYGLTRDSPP
5'-AMP-activated protein kinase catalytic subunit alpha-1 (Homo sapiens), sequence (Q13131 whole entry, looked up): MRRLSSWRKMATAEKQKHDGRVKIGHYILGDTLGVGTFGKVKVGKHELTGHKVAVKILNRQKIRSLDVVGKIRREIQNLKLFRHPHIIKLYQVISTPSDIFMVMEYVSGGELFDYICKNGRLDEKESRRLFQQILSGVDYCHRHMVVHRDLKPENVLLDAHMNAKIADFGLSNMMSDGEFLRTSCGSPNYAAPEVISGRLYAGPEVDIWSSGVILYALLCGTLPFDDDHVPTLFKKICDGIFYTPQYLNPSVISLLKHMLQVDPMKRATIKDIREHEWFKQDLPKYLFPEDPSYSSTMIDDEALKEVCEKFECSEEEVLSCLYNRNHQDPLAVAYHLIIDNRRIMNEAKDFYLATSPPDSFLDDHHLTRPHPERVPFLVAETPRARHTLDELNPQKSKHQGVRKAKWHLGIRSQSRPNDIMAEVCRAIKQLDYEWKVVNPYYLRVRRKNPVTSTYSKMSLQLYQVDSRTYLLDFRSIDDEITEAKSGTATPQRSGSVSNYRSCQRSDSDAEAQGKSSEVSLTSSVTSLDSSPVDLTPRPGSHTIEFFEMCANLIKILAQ

CC(=O)N1CCC(c2ccc(C(=O)NC3=NCCN3)cc2C(F)(F)F)CC1 [BI 0054]
inactive: residual activity [1] 87% | residual activity [2] 100% | residual activity [3] 100% | residual activity [4] 100% | residual activity [5] 100% | residual activity [6] 100% | residual activity [7] 88% | residual activity [8] 97% | residual activity [9] 100% | residual activity [10] 100% | residual activity [11] 100% | residual activity [12] 100% | residual activity [13] 100% | residual activity [14] 99% | residual activity [15] 100% | residual activity [16] 100% | residual activity [17] 100% | residual activity [18] 100% | residual activity [19] 100% | residual activity [20] 90% | residual activity [21] 78% | residual activity [22] 100% | residual activity [23] 100% | residual activity [24] 91% | residual activity [25] 98% | residual activity [26] 100% | residual activity [27] 100% | residual activity [28] 100% | residual activity [29] 100% | residual activity [30] 85% | residual activity [31] 85% | residual activity [32] 100% | residual activity [33] 74% | residual activity [34] 100% | residual activity [35] 94% | residual activity [36] 82% | residual activity [37] 100% | residual activity [38] 100% | residual activity [39] 100% | residual activity [40] 100% | residual activity [41] 68% | residual activity [42] 86% | inhibition [43] 25.3%

CC(=O)N1CCC(c2ccc(C(=O)NC(=N)N)cc2C(F)(F)F)CC1 [BI 9627]
inactive: residual activity [1] 100% | residual activity [2] 100% | residual activity [3] 100% | residual activity [4] 97% | residual activity [5] 100% | residual activity [6] 100% | residual activity [7] 100% | residual activity [8] 100% | residual activity [9] 100% | residual activity [10] 98% | residual activity [11] 100% | residual activity [12] 93% | residual activity [13] 100% | residual activity [14] 100% | residual activity [15] 100% | residual activity [16] 100% | residual activity [17] 91% | residual activity [18] 100% | residual activity [19] 100% | residual activity [20] 100% | residual activity [21] 100% | residual activity [22] 100% | residual activity [23] 100% | residual activity [24] 95% | residual activity [25] 91% | residual activity [26] 90% | residual activity [27] 100% | residual activity [28] 100% | residual activity [29] 100% | residual activity [30] 96% | residual activity [31] 100% | residual activity [32] 100% | residual activity [33] 94% | residual activity [34] 100% | residual activity [35] 96% | residual activity [36] 100% | residual activity [37] 100% | residual activity [38] 100% | residual activity [39] 100% | residual activity [40] 90% | residual activity [41] 100% | residual activity [42] 84% | inhibition [43] 13.9%
